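A five-concentration, 48-hour dose response in 96-well plates underlies each endpoint, interpolated linearly between surrounding concentrations. TGI is the concentration that stops growth completely.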
Key:
Assay in all cases: NCI tumour cell line growth inhibition, 48 h
[1] = test system: OVCAR-3 ovarian
[2] = test system: KM12 colon
[3] = test system: SK-OV-3 ovarian
[4] = test system: HOP-62 NSCLC
[5] = test system: NCI-H226 lung
[6] = test system: PC-3 prostate
[7] = test system: HS 578T breast
[8] = test system: SNB-19 CNS
[9] = test system: SN12C renal
[10] = test system: SK-MEL-2 melanoma

`O=C1NC(O)c2cc3ccccc3cc2O1` (stereo unspecified) showed a TGI [1] of 88.5 µM, a TGI [2] of over 100 µM and a TGI [3] of over 100 µM. The TGI [4] was over 100 µM, the TGI [5] was over 100 µM and the TGI [6] was over 100 µM. It also gave a TGI [7] of over 100 µM, a TGI [8] of over 100 µM and a TGI [9] of over 100 µM.
`O=C(O)CSC(CC(=O)c1ccc(Cl)cc1)c1ccc(Cl)cc1` (stereo unspecified) gave a TGI [1] of 50 µM, a TGI [10] of over 100 µM and a TGI [2] of 27.6 µM. The TGI [3] was 97.9 µM, the TGI [4] was 97.1 µM and the TGI [6] was over 100 µM. For the same compound, the TGI [7] was over 100 µM, the TGI [8] was over 100 µM and the TGI [9] was over 100 µM.
For `Cc1c(C)c2c(c(N)c1C#N)C(=O)N(N)C2=O`, the TGI [1] was over 100 µM, the TGI [10] was over 100 µM and the TGI [2] was over 100 µM. It also gave a TGI [3] of over 100 µM, a TGI [5] of over 100 µM and a TGI [6] of over 100 µM. It also gave a TGI [7] of over 100 µM, a TGI [8] of over 100 µM and a TGI [9] of over 100 µM.
`COP(=O)(OC)OCN(C)CC/C=C(\C)CC/C=C(\C)CCC=C(C)C` was tested, and the TGI [1] was 29.9 µM, the TGI [10] was 28.2 µM and the TGI [2] was 30 µM. It also gave a TGI [3] of over 100 µM, a TGI [4] of 29.7 µM and a TGI [5] of 34.6 µM. For the same compound, the TGI [6] was 21.2 µM, the TGI [8] was 25.6 µM and the TGI [9] was 32.1 µM.
With `COC(=O)C1=C(CCCCO[Si](C)(C)C(C)(C)C)NC(=O)N2[C@H](CCOCc3ccccc3)CC[C@@H]12` the TGI [1] was over 100 µM, the TGI [10] was over 100 µM and the TGI [2] was over 100 µM. It also gave a TGI [3] of over 100 µM, a TGI [4] of over 100 µM and a TGI [5] of over 100 µM. The TGI [6] was over 100 µM, the TGI [8] was over 100 µM and the TGI [9] was over 100 µM.
In the case of `COc1cc2c[n+]3c4c(c2c(OC)c1OC)CCCC4CC3` (stereo unspecified), the TGI [1] is reported as over 100 µM, the TGI [10] is reported as over 100 µM and the TGI [2] is reported as over 100 µM. It also gave a TGI [3] of over 100 µM, a TGI [4] of over 100 µM and a TGI [6] of over 100 µM. For the same compound, the TGI [7] was 62.3 µM and the TGI [8] was over 100 µM.
With `CC(=O)n1[nH]c(=O)n(-c2ccc(Cl)cc2)c1=O` the TGI [1] was over 100 µM, the TGI [10] was over 100 µM and the TGI [2] was over 100 µM. It also gave a TGI [3] of over 100 µM, a TGI [4] of over 100 µM and a TGI [5] of over 100 µM. For the same compound, the TGI [6] was over 100 µM, the TGI [8] was over 100 µM and the TGI [9] was over 100 µM.
`CC(=O)CC1(CBr)Nc2ccc([N+](=O)[O-])cc2NC1=O` (stereo unspecified) gave a TGI [1] of over 100 µM, a TGI [10] of over 100 µM and a TGI [2] of over 100 µM. It also gave a TGI [3] of over 100 µM, a TGI [4] of over 100 µM and a TGI [5] of over 100 µM. The TGI [6] was over 100 µM, the TGI [8] was over 100 µM and the TGI [9] was over 100 µM.
Work on `CCc1nc(N)c2nc(-c3cccs3)oc2n1` yielded a TGI [1] of over 100 µM, a TGI [10] of over 100 µM and a TGI [2] of over 100 µM. It also gave a TGI [4] of over 100 µM, a TGI [5] of over 100 µM and a TGI [6] of over 100 µM. The TGI [7] was over 100 µM, the TGI [8] was over 100 µM and the TGI [9] was over 100 µM.
`C[C@]12CC[C@H]3[C@@H](CC=C4C[C@@H](N5CCCC5)CC[C@@]43C)[C@@H]1C[C@H](N1CCCCC1)[C@@H]2O` showed a TGI [1] of over 100 µM, a TGI [2] of over 100 µM and a TGI [3] of over 100 µM. The TGI [4] was over 100 µM, the TGI [5] was over 100 µM and the TGI [6] was over 100 µM. For the same compound, the TGI [7] was over 100 µM, the TGI [8] was over 100 µM and the TGI [9] was over 100 µM.
In the case of `N#Cc1ccccc1NC(=O)C(=O)C(C(=O)c1ccccc1F)C1OC(=O)c2ccccc21` (stereo unspecified), the TGI [10] is reported as 68.8 µM, the TGI [2] is reported as over 100 µM and the TGI [3] is reported as over 100 µM. For the same compound, the TGI [4] was over 100 µM, the TGI [5] was 64.4 µM and the TGI [8] was over 100 µM. It also gave a TGI [9] of over 100 µM.
